Reference: patent US20230256094A1, “CANCER RADIOSENSITIZATION BY IN SITU FORMATION OF GOLD NANOPARTICLES AND/OR GOLD NANOCLUSTERS” (BOARD OF REGENTS, THE UNIVERSITY OF TEXAS SYSTEM, priority 2020, published 2023)

Assays:
pancreatic cancer = conditions: in combination with SBRT; cited from earlier work
[1] = system: 3T3 mouse fibroblast cells; assay: MTS assay of radiosensitization after X-ray irradiation; type: cell-based; conditions: 1 mM, 10 hours; X-rays at 4 and 6 Gy
Procedure: Our initial evaluation of radiosensitization via intracellular GNP formation was performed with 3T3 mouse fibroblast cells. […] Radiosensitization with intracellular GNC formation (i.e., delivery of Au^3+) was compared with pre-fabricated albumin-coated GNCs (Albumin-GNC) prepared according to work by Xie^46 and control cells without treatment via MTS assay (FIG. 3B).
3T3 cells were first incubated with either 1 mM of sodium chloroaurate or albumin-GNCs (0.1 mM Au^0)in cell culture media for 10 hours. Then, the cells including the nontreated control were irradiated with X-rays at dosages of 0, 4 and 6 Gy in the X-ray X-RAD 225 CX irradiator system (Precision).
In our future studies we will use a standard clonogenic survival assay for quantitation of the radiosensitization effect.

[2] = system: pancreatic cancer cells (MIAPACA2); assay: Confocal fluorescence imaging of in situ GNC synthesis; type: cell-based, human
Procedure: FIG. 4 presents fluorescence confocal images of non-cancerous (HPDE) and cancerous (MIAPaCa2) pancreatic cells treated with either 1 mM of Au^3+ gold ions or premade albumin-GNCs at 1 mM Au^0 for 24 hours. (From left to right) Cells: untreated; treated with albumin-GNCs; treated with Au^3+ gold ions. […] The strong red fluorescence in cancer cells indicated intracellular synthesis of GNCs from gold ions. Scale bars are 25 μm.
We compared in situ synthesis of GNCs by pancreatic cancer cells (MIAPACA2) and pancreatic noncancerous cells (HPDE) (FIG. 4). Confocal fluorescence images were obtained using a Leica TCS SP8 confocal microscope with 561 nm excitation and 610 nm emission optimized for detection of GNCs.

Compound	overall survival (OS) (pancreatic cancer) [months]	radiosensitization by in situ synthetized GNCs as compared to Albumin-GNC control (MTS) [1]	intracellular distribution of fluorescence from GNCs ([2]; MIAPACA2, optical sectioning)	GNC fluorescence / GNC formation ([2]; MIAPACA2, 1 mM, 24 hours, 561 nm excitation, 610 nm emission)
Nc1ccn([C@@H]2O[C@H](CO)[C@@H](O)C2(F)F)c(=O)n1 [gemcitabine]	13.9	–	–	–
[Cl][Au-]([Cl])([Cl])[Cl].[Na+] [sodium chloroaurate]	–	significant increase in radiosensitization	uniformly distributed throughout the intracellular space with a significant fraction in nuclei	striking increase in GNC formation
